Experimental data from paper PMC5469273, “Discovery of Novel Small-Molecule Inhibitors of LIM Domain Kinase for Inhibiting HIV-1” (Journal of Virology, 2017).

What was measured:
[1] = target: PKA (Homo sapiens, UniProt P17612); experiment: Kinase profiling (Reaction Biology): PKA
[2] = target: STK16 (Homo sapiens, UniProt O75716); experiment: Kinase profiling (Reaction Biology): STK16
[3] = tested on: cofilin serine 3 phosphorylation; experiment: Western blotting for cofilin serine 3 phosphorylation in CEM-SS T cells; conditions: 100 μM, time course
[4] = tested on: CD4; experiment: Surface staining of CD4 on CEM-SS T cells; assay type: cell-based, human; conditions: 100 μM
[5] = target: NEK1 (Homo sapiens, UniProt Q96PY6); experiment: Kinase profiling (Reaction Biology): NEK1
[6] = target: PKCa (Homo sapiens, UniProt P17252); experiment: Kinase profiling (Reaction Biology): PKCa
[7] = target: p70S6K/RPS6KB1 (Homo sapiens, UniProt P23443); experiment: Kinase profiling (Reaction Biology): p70S6K/RPS6KB1; conditions: read-out: inhibition of p70S6K
[8] = target: LRRK2 (G2019S) (Homo sapiens, UniProt Q5S007, G2019S); experiment: Kinase profiling (Reaction Biology): LRRK2 (G2019S)
[9] = tested on: HSV-1; experiment: HSV-1 plaque assay in Vero cells; assay type: cell-based, herpes simplex virus 1
[10] = target: c-Kit (Homo sapiens, UniProt P10721); experiment: Kinase profiling (Reaction Biology): c-Kit
[11] = target: Aurora A (Homo sapiens, UniProt O14965); experiment: Kinase profiling (Reaction Biology): Aurora A
[12] = target: IGF1R (Homo sapiens, UniProt P08069); experiment: Kinase profiling (Reaction Biology): IGF1R
[13] = target: LIMK1 (Homo sapiens, UniProt P53667); experiment: LIMK1 biochemical assay, 10-dose IC50; parameters: purified from insect cells; His; purchased Reaction Biology Corporation, Malvern, PA; host or cells: insect cells (coexpressed with ROCK1); conditions: purified LIMK1; 10 μM ATP, 1 μM cofilin; ≥2 in vitro kinase assays; read-out: LIMK1 Biochemical Inhibition IC50
Text: We selected R10015 from the potential LIMK inhibitors for further detailed mechanistic studies. The synthesis, purification, and biochemical characterization of R10015 are described in Materials and Methods below and shown in Fig. 3. We performed a cell-free assay to measure R10015 inhibition of the LIM domain kinase using purified human LIMK1 and its substrate, cofilin. […] We also performed profiling of R10015 against a panel of 62 kinases (Table 2).
Biochemical LIMK1 assays for all inhibitors were carried out by Reaction Biology Corporation, Malvern, PA, and followed the protocols described on its website. […] Reactions were carried out at 10 μM ATP, 1 μM substrate (cofilin), and 50 nM LIMK1 (final concentrations). […] The reagents were as follows: base reaction buffer, 20 mM HEPES (pH 7.5), 10 mM MgCl2, 1 mM EGTA, 0.02% Brij 35, 0.02 mg/ml bovine serum albumin (BSA), 0.1 mM Na3VO4, 2 mM dithiothreitol (DTT), 1% DMSO. No additional cofactors were added to the reaction mixture. The reaction procedures were as follows. (i) The indicated substrate was prepared in freshly made base reaction buffer. (ii) Any required cofactors were delivered to the substrate solution described above. (iii) The indicated kinase was delivered into the substrate solution and gently mixed. (iv) The compounds in DMSO were delivered into the kinase reaction mixture. (v) [^33P]ATP (final specific activity, 0.01 μCi/μl) was delivered into the reaction mixture to initiate the reaction. […] (viii) The filters were washed extensively in 0.1% phosphoric acid.

[14] = tested on: phosphorylation of PAK2; experiment: Western blotting for PAK2 phosphorylation in CEM-SS T cells; conditions: 100 μM, time course
[15] = tested on: Rev-CEM-GFP-Luc cells; conditions: 4 h treatment; all concentrations tested up to 200 μM
[16] = target: JAK3 (Homo sapiens, UniProt P52333); experiment: Kinase profiling (Reaction Biology): JAK3
[17] = tested on: CXCR4; experiment: Surface staining of CXCR4 on CEM-SS T cells; assay type: cell-based, human; conditions: 100 μM, 1 h
[18] = target: SGK1 (Homo sapiens, UniProt O00141); experiment: Kinase profiling (Reaction Biology): SGK1
[19] = target: c-Src (Homo sapiens, UniProt P12931); experiment: Kinase profiling (Reaction Biology): c-Src
[20] = target: JNK1 (Homo sapiens, UniProt P45983); experiment: Kinase profiling (Reaction Biology): JNK1
[21] = target: BRAF (Homo sapiens, UniProt P15056); experiment: Kinase profiling (Reaction Biology): BRAF
[22] = target: TAOK1 (Homo sapiens, UniProt Q7L7X3); experiment: Kinase profiling (Reaction Biology): TAOK1
[23] = target: FLT3 (Homo sapiens, UniProt P36888); experiment: Kinase profiling (Reaction Biology): FLT3
[24] = target: AMPK(A1/B1/G1) (Homo sapiens, UniProt Q13131); experiment: Kinase profiling (Reaction Biology): AMPK(A1/B1/G1)
[25] = target: ROCK2 (Homo sapiens, UniProt O75116); experiment: Kinase profiling (Reaction Biology): ROCK2
[26] = target: RET (Homo sapiens, UniProt P07949); experiment: Kinase profiling (Reaction Biology): RET

LRRK2 (G2019S), sequence (Q5S007 whole entry G2019S): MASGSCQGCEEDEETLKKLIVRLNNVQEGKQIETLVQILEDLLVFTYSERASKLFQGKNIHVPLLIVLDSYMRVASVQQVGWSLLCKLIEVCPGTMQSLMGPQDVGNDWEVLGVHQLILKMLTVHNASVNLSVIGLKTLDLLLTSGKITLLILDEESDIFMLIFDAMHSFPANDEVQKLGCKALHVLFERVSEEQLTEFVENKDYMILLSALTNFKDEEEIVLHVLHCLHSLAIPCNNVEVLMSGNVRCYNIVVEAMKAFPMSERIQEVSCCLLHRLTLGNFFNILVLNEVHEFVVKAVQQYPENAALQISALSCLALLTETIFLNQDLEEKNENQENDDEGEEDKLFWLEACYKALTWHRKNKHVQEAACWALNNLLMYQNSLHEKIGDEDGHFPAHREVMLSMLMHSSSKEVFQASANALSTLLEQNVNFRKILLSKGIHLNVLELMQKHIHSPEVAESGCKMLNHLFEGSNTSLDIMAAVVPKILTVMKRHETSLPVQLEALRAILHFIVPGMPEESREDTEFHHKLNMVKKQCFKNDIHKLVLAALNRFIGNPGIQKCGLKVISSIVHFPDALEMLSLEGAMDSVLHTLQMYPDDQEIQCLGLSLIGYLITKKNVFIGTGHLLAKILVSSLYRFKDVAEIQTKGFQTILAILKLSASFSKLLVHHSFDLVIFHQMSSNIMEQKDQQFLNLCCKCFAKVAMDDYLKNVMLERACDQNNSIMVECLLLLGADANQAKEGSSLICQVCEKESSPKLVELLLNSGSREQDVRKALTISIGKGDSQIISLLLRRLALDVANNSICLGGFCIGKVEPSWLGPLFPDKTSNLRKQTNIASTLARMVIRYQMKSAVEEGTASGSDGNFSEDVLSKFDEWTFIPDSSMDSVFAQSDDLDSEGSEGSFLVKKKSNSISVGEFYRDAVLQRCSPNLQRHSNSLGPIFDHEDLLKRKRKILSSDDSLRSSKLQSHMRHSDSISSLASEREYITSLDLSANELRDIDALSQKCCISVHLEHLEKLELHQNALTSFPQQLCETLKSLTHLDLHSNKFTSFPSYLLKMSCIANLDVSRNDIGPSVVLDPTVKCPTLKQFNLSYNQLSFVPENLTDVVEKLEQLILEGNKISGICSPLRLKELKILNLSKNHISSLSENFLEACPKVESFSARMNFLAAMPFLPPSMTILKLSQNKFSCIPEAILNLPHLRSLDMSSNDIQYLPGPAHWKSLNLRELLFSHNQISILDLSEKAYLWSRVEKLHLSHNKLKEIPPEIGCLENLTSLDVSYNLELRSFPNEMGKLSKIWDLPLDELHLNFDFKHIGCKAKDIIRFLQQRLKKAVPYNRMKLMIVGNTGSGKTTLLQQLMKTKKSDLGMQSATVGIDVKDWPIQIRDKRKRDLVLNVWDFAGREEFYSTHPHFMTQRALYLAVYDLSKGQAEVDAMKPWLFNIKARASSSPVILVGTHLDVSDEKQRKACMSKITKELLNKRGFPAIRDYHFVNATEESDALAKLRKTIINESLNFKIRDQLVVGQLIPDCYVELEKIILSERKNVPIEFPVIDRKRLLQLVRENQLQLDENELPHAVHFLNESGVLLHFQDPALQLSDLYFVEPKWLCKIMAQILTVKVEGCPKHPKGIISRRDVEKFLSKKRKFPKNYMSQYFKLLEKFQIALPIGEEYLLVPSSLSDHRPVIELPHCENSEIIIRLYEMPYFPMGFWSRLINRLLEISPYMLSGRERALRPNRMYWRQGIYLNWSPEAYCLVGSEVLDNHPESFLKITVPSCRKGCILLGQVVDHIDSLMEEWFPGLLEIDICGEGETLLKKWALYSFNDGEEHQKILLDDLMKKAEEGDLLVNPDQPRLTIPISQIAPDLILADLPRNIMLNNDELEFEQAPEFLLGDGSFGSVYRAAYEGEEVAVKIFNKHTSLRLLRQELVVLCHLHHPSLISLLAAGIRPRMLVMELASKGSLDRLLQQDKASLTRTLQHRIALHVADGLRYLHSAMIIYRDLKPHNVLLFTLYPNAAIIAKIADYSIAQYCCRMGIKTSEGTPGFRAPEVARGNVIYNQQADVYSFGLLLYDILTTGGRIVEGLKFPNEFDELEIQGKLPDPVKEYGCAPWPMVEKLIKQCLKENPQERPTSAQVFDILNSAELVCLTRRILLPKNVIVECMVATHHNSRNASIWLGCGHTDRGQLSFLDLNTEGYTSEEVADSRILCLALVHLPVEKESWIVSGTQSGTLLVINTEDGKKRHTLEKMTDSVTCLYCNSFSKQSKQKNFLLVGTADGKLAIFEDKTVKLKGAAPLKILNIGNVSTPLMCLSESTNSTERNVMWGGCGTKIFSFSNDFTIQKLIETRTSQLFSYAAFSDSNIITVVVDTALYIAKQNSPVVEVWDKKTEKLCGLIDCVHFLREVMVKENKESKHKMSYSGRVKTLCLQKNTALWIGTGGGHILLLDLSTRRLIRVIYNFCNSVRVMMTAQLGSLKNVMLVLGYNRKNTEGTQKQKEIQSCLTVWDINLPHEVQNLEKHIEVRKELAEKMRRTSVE
FLT3, sequence (P36888 27-993): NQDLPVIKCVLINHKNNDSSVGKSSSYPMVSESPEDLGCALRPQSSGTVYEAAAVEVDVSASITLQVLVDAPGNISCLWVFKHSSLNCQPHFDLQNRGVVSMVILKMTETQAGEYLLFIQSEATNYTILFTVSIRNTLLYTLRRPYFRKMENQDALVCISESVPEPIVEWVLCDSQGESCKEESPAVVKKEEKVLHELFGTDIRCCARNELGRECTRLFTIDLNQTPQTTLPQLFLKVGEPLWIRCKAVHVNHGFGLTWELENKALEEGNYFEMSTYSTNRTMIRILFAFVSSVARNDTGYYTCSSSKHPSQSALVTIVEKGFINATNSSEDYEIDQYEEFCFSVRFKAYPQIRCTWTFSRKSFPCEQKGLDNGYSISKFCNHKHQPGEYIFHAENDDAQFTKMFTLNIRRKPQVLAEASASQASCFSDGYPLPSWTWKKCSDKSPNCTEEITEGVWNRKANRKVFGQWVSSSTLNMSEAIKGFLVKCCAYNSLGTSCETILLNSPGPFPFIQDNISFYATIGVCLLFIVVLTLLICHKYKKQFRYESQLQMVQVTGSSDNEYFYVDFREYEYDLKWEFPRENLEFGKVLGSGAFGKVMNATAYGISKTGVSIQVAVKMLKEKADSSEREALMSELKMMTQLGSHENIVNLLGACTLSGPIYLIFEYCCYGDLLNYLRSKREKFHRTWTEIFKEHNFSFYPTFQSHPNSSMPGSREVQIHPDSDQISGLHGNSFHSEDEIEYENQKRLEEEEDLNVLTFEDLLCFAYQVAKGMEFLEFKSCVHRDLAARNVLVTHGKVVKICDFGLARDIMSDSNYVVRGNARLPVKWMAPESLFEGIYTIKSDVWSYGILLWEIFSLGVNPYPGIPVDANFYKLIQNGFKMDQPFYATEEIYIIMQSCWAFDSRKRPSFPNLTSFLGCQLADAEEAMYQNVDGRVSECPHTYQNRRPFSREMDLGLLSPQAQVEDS
ROCK2, sequence (O75116 whole entry): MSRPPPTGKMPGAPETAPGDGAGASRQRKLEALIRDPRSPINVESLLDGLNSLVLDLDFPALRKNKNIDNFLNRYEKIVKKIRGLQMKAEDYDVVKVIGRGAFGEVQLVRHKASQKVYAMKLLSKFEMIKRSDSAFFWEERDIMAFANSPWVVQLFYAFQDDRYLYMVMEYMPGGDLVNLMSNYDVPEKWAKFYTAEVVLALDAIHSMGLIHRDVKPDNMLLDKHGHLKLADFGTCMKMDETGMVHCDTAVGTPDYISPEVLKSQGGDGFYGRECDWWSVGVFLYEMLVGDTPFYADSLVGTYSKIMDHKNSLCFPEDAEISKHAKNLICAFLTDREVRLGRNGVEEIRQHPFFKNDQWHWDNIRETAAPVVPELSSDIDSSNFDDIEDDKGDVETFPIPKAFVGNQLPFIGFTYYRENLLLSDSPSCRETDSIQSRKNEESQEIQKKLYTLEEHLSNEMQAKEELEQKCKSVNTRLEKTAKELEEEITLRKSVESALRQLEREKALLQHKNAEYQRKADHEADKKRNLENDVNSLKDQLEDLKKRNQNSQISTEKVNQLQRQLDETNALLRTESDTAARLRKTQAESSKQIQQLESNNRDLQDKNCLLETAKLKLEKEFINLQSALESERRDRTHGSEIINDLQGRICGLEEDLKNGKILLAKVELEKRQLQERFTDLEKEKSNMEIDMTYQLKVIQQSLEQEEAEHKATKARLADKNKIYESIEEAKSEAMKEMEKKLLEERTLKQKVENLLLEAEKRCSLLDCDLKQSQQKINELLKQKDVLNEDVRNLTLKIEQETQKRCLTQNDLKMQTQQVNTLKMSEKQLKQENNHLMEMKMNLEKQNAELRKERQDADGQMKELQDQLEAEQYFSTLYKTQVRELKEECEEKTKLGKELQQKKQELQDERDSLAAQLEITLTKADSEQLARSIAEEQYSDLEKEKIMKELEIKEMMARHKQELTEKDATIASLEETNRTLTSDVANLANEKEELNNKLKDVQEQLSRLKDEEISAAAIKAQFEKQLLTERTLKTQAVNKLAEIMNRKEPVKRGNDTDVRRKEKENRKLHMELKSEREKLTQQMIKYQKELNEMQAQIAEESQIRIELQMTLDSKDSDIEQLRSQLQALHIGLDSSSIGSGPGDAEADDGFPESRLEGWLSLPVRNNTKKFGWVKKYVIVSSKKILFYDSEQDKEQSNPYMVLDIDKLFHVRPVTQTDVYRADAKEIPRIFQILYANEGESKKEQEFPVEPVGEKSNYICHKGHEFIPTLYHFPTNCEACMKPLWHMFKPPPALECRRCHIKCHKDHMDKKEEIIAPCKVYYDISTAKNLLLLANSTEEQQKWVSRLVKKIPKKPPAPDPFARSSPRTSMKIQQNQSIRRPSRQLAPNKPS

Q: Which results are given for `COC(=O)c1ccc2[nH]c(C3CCN(c4ncnc5[nH]cc(Cl)c45)CC3)nc2c1` [Compound R10015, Methyl 2-(1-(5-chloro-7H-pyrrolo[2,3-d]pyrimidin-4-yl)piperidin-4-yl)-1H-benzo[d]imidazole-5-carboxylate]?
A: activity at 1 µM [1]: 24%; inhibition at 1 µM ([1]; read-out: inhibition of protein kinase A (PKA)): ~76%; activity at 1 µM [2]: 48.6%; cofilin serine 3 phosphorylation [3]: drastic inhibition; surface expression of CD4 ([4]; 1 h): did not alter; surface density of CD4 ([4]; prolonged treatment 4 h): slightly decreased; activity at 1 µM [5]: 67.2%; activity at 1 µM [6]: 47.5%; inhibition at 1 µM [7]: ≥ 90%; activity at 1 µM [8]: 6.7%; inhibition at 1 µM ([8]; read-out: inhibition of LRRK2): ≥ 90%; inhibition of HSV-1 (viral plaques) [9]: inhibition; activity at 1 µM [10]: 81.3%; activity at 1 µM [11]: 60.3%; activity at 1 µM [12]: 90%; IC50 [13]: 38 ± 5 nM; phosphorylation of PAK2 [14]: not affected; cytotoxicity [15]: no detectable cytotoxicity; activity at 1 µM [16]: 61.1%; surface expression of CXCR4 [17]: did not alter; activity at 1 µM [18]: 61%; activity at 1 µM [19]: 92.4%; activity at 1 µM [20]: 95.2%; activity at 1 µM [21]: 91.9%; activity at 1 µM [22]: 54%; activity at 1 µM [23]: 32.2%; inhibition at 1 µM ([23]; read-out: inhibition of FLT3): ~68%; activity at 1 µM [24]: 76.6%; activity at 1 µM [25]: 29.5%; inhibition at 1 µM ([25]; read-out: inhibition of ROCK2): ~70%; activity at 1 µM [26]: 46.5%
